Data on 14 molecules can be found in ChEMBL document CHEMBL1158325, “Norditerpenoids and diterpenoids from Salvia multicaulis with antituberculous activity” (1997).

What all share (format): functional
Experiment [1] concerns Escherichia coli. The experiment in a line: Antibacterial activity against Escherichia coli ATCC 8739 by disk diffusion method. (In general: In agar diffusion tests the substance spreads into inoculated agar from a disc or well.)
Experiment [2] deals with Proteus mirabilis. The experiment in a line: Antibacterial activity against Proteus mirabilis ATCC 14153 by disk diffusion method.
The test system of experiment [3] is Klebsiella pneumoniae. In words: Antibacterial activity against Klebsiella pneumoniae ATCC 4352 by disk diffusion method.
Experiment [4] deals with Pseudomonas aeruginosa. In words: Antibacterial activity against Pseudomonas aeruginosa ATCC 9027 by tube dilution method.
The subject of experiment [5] is Streptococcus. In words: Antibacterial activity against beta-haemolyticus Streptococcus isolate by tube dilution method.
Experiment [6] deals with Pseudomonas aeruginosa. The experiment in a line: Antibacterial activity against Pseudomonas aeruginosa ATCC 9027 by disk diffusion method.
The subject of experiment [7] is Mycobacterium tuberculosis. The experiment in a line: Antitubercular activity against Mycobacterium tuberculosis H37Rv after 21 days by broth microdilution method. The conditions noted are these: 504 h.
Experiment [8] relates to Klebsiella pneumoniae. In words: Antibacterial activity against Klebsiella pneumoniae ATCC 4352 by tube dilution method.
Experiment [9] has as its system Streptococcus. The experiment in a line: Antibacterial activity against beta-haemolyticus Streptococcus isolate by disk diffusion method.
The test system of experiment [10] is Staphylococcus aureus. In words: Antibacterial activity against Staphylococcus aureus ATCC 6538 by disk diffusion method.
Experiment [11] has as its system Enterococcus faecalis. The experiment in a line: Antibacterial activity against Enterococcus faecalis ATCC 29212 by disk diffusion method.
The subject of experiment [12] is Escherichia coli. The experiment in a line: Antibacterial activity against Escherichia coli ATCC 8739 by tube dilution method.
In experiment [13] the test system is Proteus mirabilis. In words: Antibacterial activity against Proteus mirabilis ATCC 14153 by tube dilution method.
Experiment [14] relates to Staphylococcus aureus. The experiment in a line: Antibacterial activity against Staphylococcus aureus ATCC 6538 by tube dilution method.
Experiment [15] concerns Enterococcus faecalis. In words: Antibacterial activity against Enterococcus faecalis ATCC 29212 by tube dilution method.

Converted amounts (≈) assume the structure as drawn. The source made the active and inactive calls. The calls are words filed in the database; no cut-off is given here.

The MIC is the lowest concentration that inhibits growth of the organism. Read a high MIC as a need for much substance. On to `Cc1ccc2c(ccc3cc(C(C)C)c(O)cc32)c1C`, for which the outcome in the experiment on Escherichia coli [1], in the experiment on Proteus mirabilis [2], with Staphylococcus aureus [10] and with Enterococcus faecalis [11] was inactive. The “inhibition zone (IZ)” value with Klebsiella pneumoniae [3], in the experiment on Pseudomonas aeruginosa [6] and in the experiment on Streptococcus [9] was above 7 mm each time. Further, the MIC in the experiment with Pseudomonas aeruginosa [4] was 15.6 µg/mL (≈ 59 µM); in the experiment on Streptococcus [5] it was 2 µg/mL (≈ 7.57 µM); in [7], 0.46 µg/mL (≈ 1.74 µM); in the experiment on Klebsiella pneumoniae [8] it was 15.6 µg/mL (≈ 59 µM).
For the molecule `COC1=C(C(C)C)C(=O)C2=C(C1=O)[C@@]1(C)CCCC(C)(C)C1=C[C@H]2O`, the MIC in experiment [7] stood at 1.2 µg/mL (≈ 3.48 µM).
In the case of `COC1=C(C(C)C)C(=O)C2=C(C1=O)[C@@]1(C)CCCC(C)(C)C1=C[C@H]2OC(C)=O`, the outcome with Escherichia coli [1], in the experiment on Proteus mirabilis [2], in the experiment on Pseudomonas aeruginosa [6], in the experiment with Streptococcus [9], with Staphylococcus aureus [10] and with Enterococcus faecalis [11] was inactive. The “inhibition zone (IZ)” value in the experiment with Klebsiella pneumoniae [3] is above 7 mm. Also, the MIC was determined as 0.89 µg/mL (≈ 2.3 µM) in [7] and 7.2 µg/mL (≈ 18.6 µM) against Klebsiella pneumoniae [8].
In turn, `Nc1ccc(C(=O)O)c(O)c1` [AMINOSALICYLIC ACID] had an MIC in [7] of 5 µg/mL (≈ 32.7 µM).
For `Cc1c(O)cc2c3c(ccc2c1C)C=C(C(C)C)C(=O)C3=O` [DEMETHYLMULTIORTHOQUINONE], the “inhibition zone (IZ)” value in the experiment with Escherichia coli [1] is above 7 mm. In addition, the figures for the MIC (against Escherichia coli [12]; in experiment [7]) were 4.6 µg/mL (≈ 15.6 µM) and 1.2 µg/mL (≈ 4.08 µM), respectively. Also, the result in the experiment with Proteus mirabilis [2], in the experiment on Klebsiella pneumoniae [3], in the experiment on Pseudomonas aeruginosa [6], in the experiment on Streptococcus [9], with Staphylococcus aureus [10] and with Enterococcus faecalis [11] was inactive.
As for `CC[C@@H](CO)NCCN[C@@H](CC)CO` [ETHAMBUTOL], 5 µg/mL (≈ 24.5 µM) was the least that counted as inhibitory in experiment [7] (MIC).
As for `CCc1cc(C(N)=S)ccn1` [ETHIONAMIDE], the MIC in [7] came out at 5 µg/mL (≈ 30.1 µM).
As for `NNC(=O)c1ccncc1` [ISONIAZID], the lowest concentration to inhibit growth in [7] (MIC) was 0.2 µg/mL (≈ 1.46 µM).
Still for that read-out and setting: to `NC[C@H]1O[C@H](O[C@H]2[C@H](O)[C@@H](O[C@H]3O[C@H](CO)[C@@H](O)[C@H](N)[C@H]3O)[C@H](N)C[C@@H]2N)[C@H](O)[C@@H](O)[C@@H]1O` [KANAMYCIN] belongs 5 µg/mL (≈ 10.3 µM).
For the molecule `COc1cc2c(ccc3c(C)c(C)ccc32)cc1C(C)C` [MULTICAULIN], the “inhibition zone (IZ)” value in the experiment with Escherichia coli [1], in the experiment on Proteus mirabilis [2], in the experiment with Streptococcus [9] and in the experiment on Staphylococcus aureus [10] was above 7 mm in each case. Further, the MIC against Proteus mirabilis [13] was 1.4 µg/mL (≈ 5.03 µM); against Staphylococcus aureus [14] it was 0.2 µg/mL (≈ 0.718 µM); in the experiment on Escherichia coli [12], 0.7 µg/mL (≈ 2.51 µM); in the experiment on Streptococcus [5], 0.2 µg/mL (≈ 0.718 µM); in [7] it was 5.6 µg/mL (≈ 20.1 µM). Also, the result in the experiment with Klebsiella pneumoniae [3], in the experiment with Pseudomonas aeruginosa [6] and in the experiment on Enterococcus faecalis [11] was inactive.
Regarding `COc1cc2c3c(ccc2c(C)c1C)C=C(C(C)C)C(=O)C3=O` [MULTIORTHOQUINONE], the result with Escherichia coli [1], in the experiment with Proteus mirabilis [2] and in the experiment on Klebsiella pneumoniae [3] was inactive. Further, the MIC with Staphylococcus aureus [14] came to 0.1 µg/mL (≈ 0.324 µM); with Pseudomonas aeruginosa [4], 0.5 µg/mL (≈ 1.62 µM); in the experiment with Streptococcus [5], 0.1 µg/mL (≈ 0.324 µM); in [7] it was 2 µg/mL (≈ 6.49 µM); in the experiment with Enterococcus faecalis [15] it was 2 µg/mL (≈ 6.49 µM). Besides, the “inhibition zone (IZ)” value in the experiment with Pseudomonas aeruginosa [6], in the experiment on Streptococcus [9], in the experiment with Staphylococcus aureus [10] and in the experiment with Enterococcus faecalis [11] was above 7 mm in each case.
Take `CO[C@H]1/C=C/O[C@@]2(C)Oc3c(C)c(O)c4c(O)c(c(/C=N/N5CCN(C)CC5)c(O)c4c3C2=O)NC(=O)/C(C)=C\C=C\[C@H](C)[C@H](O)[C@@H](C)[C@@H](O)[C@@H](C)[C@H](OC(C)=O)[C@@H]1C` [RIFAMPIN]: the MIC in [7] worked out at 0.5 µg/mL (≈ 0.608 µM).
`C=C[C@]1(C)C=C2[C@@H](O)C[C@H]3C(C)(C)C(=O)CC[C@]3(C)[C@]2(O)C(=O)C1` [SALVIPIMARONE]: the outcome in the experiment with Escherichia coli [1], in the experiment with Klebsiella pneumoniae [3], in the experiment with Pseudomonas aeruginosa [6], in the experiment on Streptococcus [9], in the experiment on Staphylococcus aureus [10] and with Enterococcus faecalis [11] was inactive. For the same molecule, the MIC amounted to 3.6 µg/mL (≈ 10.8 µM) with Proteus mirabilis [13], 7.3 µg/mL (≈ 22 µM) in experiment [7] and 3.6 µg/mL (≈ 10.8 µM) in the experiment with Enterococcus faecalis [15]. Besides, the “inhibition zone (IZ)” value with Proteus mirabilis [2] was above 7 mm.
`CN[C@@H]1[C@H](O[C@H]2[C@H](O[C@H]3[C@H](O)[C@@H](O)[C@H](N=C(N)N)[C@@H](O)[C@@H]3N=C(N)N)O[C@@H](C)[C@]2(O)C=O)O[C@@H](CO)[C@H](O)[C@H]1O` [STREPTOMYCIN] gave an MIC in experiment [7] of 2 µg/mL (≈ 3.44 µM).
